Experimental data reported in publication PMC3371024, “A Novel 5-Enolpyruvylshikimate-3-Phosphate Synthase Shows High Glyphosate Tolerance in Escherichia coli and Tobacco Plants” (PLoS ONE, 2012).

Experiments:
G2 EPSPS = target: T1, G2 EPSPS (Pseudomonas fluorescens, UniProt A1Z0H6); experiment: Pi release (Lanzetta reagent, […] nm); Km(obs) of PEP versus glyphosate; assay type: biochemical; conditions: 1 mM S3P, varied PEP, 50 mM HEPES-NaOH pH 7.0, 100 mM KCl, 2 mM DTT, 25 °C; competitive with PEP; read-out: K i (glyphosate; μM)
T1 construct: gene aroA

A1501 EPSPS = target: T2, A1501 EPSPS (Stutzerimonas stutzeri, UniProt A4VLZ3); experiment: as above; assay type: biochemical; conditions: 1 mM S3P, varied PEP, 50 mM HEPES-NaOH pH 7.0, 100 mM KCl, 2 mM DTT, 25 °C; competitive with PEP; read-out: K i (glyphosate; μM)
T2 construct: gene aroA

AM79 EPSPS [1] = target: T3, AM79 EPSPS; experiment: as above; assay type: biochemical, uncultured soil bacterium; conditions: 1 mM S3P, varied PEP, 50 mM HEPES-NaOH pH 7.0, 100 mM KCl, 2 mM DTT, 25 °C; competitive with PEP; read-out: K i (glyphosate; μM)
T3 construct: gene aroA; aroA in pET-28a, stop codon removed so two His tags (N- and C-terminal), E. coli Rosetta (DE3), Ni-NTA purified; printed residues Ala107, Phe114, Ala355, His356, Glu357

AM79 EPSPS [2] = tested on: T3, AM79 EPSPS; experiment: Pi release (Lanzetta reagent, […] nm); Michaelis-Menten fit; assay type: biochemical, uncultured soil bacterium; conditions: 1 mM S3P, no glyphosate, 50 mM HEPES-NaOH pH 7.0, 100 mM KCl, 2 mM DTT, 25 °C; read-out: K m (PEP; μM)

| Structure (SMILES) | Ki (G2 EPSPS) [µM] | Ki (A1501 EPSPS) [µM] | Ki (AM79 EPSPS [1]) [µM] | Km (AM79 EPSPS [2]) [µM] |
| --- | --- | --- | --- | --- |
| O=C(O)CNCP(=O)(O)O [glyphosate, N-phosphonomethyl glycine] | 44.7 ± 5.2 | 467 ± 30.2 | 154 ± 4.06 | – |
| C=C(OP(=O)(O)O)C(=O)O [PEP] | – | – | – | 14.59 ± 0.11 |
